{"source": "patent US20080146525A1", "about": "(priority 2006, published 2008)", "origin": "cited, not measured here", "key": {"[1]": {"conditions": "administered orally"}, "[2]": {"conditions": "healthy adolescents"}, "[3]": {"conditions": "animal models and humans"}, "[4]": {"test_system": "extra-cellular acetylcholine and dopamine levels", "conditions": "versus compositions commonly used to treat Alzheimer's disease; rats"}, "neurotransmitters": {"test_system": "neurotransmitters", "conditions": "humans"}}}
{"smiles": "CC(=C(CCOC(=O)C(C)C)SSC(CCOC(=O)C(C)C)=C(C)N(C=O)Cc1cnc(C)nc1N)N(C=O)Cc1cnc(C)nc1N", "note": "(stereo in doubt) [Sulbutiamine]", "values": [{"measurement": "memory effect", "setting": "rats", "result": "memory enhancing effects"}]}
{"smiles": "C/C=C1\\[C@H]2C=C(C)C[C@]1(N)c1ccc(=O)[nH]c1C2", "note": "[Huperzine-A]", "values": [{"measurement": "bioavailability", "setting": "[1]", "result": "good bioavailability"}, {"measurement": "amount of nerve growth factor", "setting": "nerve growth factor", "result": "increase the amount of nerve growth factor"}, {"measurement": "memory and learning", "setting": "[2]", "result": "improve memory and learning"}, {"measurement": "effect on memory deficits", "setting": "[3]", "result": "improves memory deficits"}, {"measurement": "ability to increase extra-cellular acetylcholine and dopamine levels", "setting": "[4]", "result": "greater ability to increase extra-cellular acetylcholine and dopamine levels"}]}
{"smiles": "N[C@@H](Cc1ccc(O)cc1)C(=O)O", "note": "[Tyrosine]", "values": [{"measurement": "neurotransmitters after oral administration", "setting": "neurotransmitters", "result": "increased of neurotransmitters"}]}
